What was measured:
MMP01 = biological target: T1, MMP01 (Homo sapiens, UniProt P03956); experiment: Thiopeptolide assay, MMP01; type: biochemical; settings: Tables 2, 3, 5, 7; read-out: IC50 MMP1
T1 construct: purchased Washington University School of Medicine, St. Louis, Mo
T1 sequence (P03956 100-469): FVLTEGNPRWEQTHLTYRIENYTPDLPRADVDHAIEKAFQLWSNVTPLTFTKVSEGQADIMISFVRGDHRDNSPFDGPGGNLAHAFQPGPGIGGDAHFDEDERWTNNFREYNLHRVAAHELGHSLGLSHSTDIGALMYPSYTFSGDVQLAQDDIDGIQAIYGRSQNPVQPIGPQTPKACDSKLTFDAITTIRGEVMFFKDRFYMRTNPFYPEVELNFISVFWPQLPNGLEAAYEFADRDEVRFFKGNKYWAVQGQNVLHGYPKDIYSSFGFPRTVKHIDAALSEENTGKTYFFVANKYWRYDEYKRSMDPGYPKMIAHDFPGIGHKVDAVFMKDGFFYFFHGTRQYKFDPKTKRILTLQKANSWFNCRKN
Procedure: (§1) MMP01, MMP07, MMP09, and MMP13 activity was assayed in a method similar to MMP02 and MMP03 (SCD and GCD). MMP01 and MMP09 can be obtained from Washington University School of Medicine, St. Louis, Mo. MMP07 can be obtained in accordance with the known procedure set forth by Ye QZ, Johnson L. L., and Baragi V., "Gene Syntheses and Expression in E. coli for PUMP, a Human Matrix Metalloproteinase" Biochem. and Biophys. […] MMP 13 can be obtained in accordance with the known procedure set forth by Freije J. M. P., et al., "Molecular Cloning and Expression of Collegenase-3, a Novel Human Matrix Metalloproteinase Produced by Breast Carcinomas" J. Bio.
(§2) Hydrolysis of the thiopeptolide substrate Ac-Pro-Leu-Gly-thioester-Leu-Leu-Gly-OEt (Bachem) is used as the primary screen to determine IC50 values for MMP inhibitors. A 100 μL reaction contains 1 mM 5,5'-dithiobis(2-nitrobenzoic acid) (DTNB), 100 μM substrate, 0.1% Brij, enzyme, and inhibitor in the appropriate reaction buffer. Activated full-length enzymes are assayed at 5 nM, Stromelysin Catalytic Domain (SCD) at 10 nM, and Gelatinase A Catalytic Domain (GaCD) at 1 nM. Inhibitors are screened from 100 μM to 1 nM. Full-length enzymes are assayed in 50 mM HEPES, 10 mM CaCl2, pH 7.0; SCD in 50 mM MES, 10 mM CaCl2, pH 6.0; and GaCD in 50 mM MOPS, 10 mM CaCl2, 10 μM ZnCl2, pH 7.0.

[1] = biological target: gelatinase A catalytic domain (MMP02); experiment: Thiopeptolide assay, gelatinase A catalytic domain (GCD, MMP02); type: biochemical; settings: Tables 2, 3, 5, 7; read-out: IC50 MMP-2CD
Procedure: as §2

[2] = biological target: T2, stromelysin-1 catalytic domain (MMP03) (Homo sapiens, UniProt P08254); experiment: Thiopeptolide assay, stromelysin-1 catalytic domain (SCD, MMP03); type: biochemical; settings: Tables 2, 3, 5, 7; read-out: IC50 MMP 3CD
T2 construct: SCD (stromelysin-1 catalytic domain); made in house; host or cells: Escherichia coli
Procedure: as §2

MMP07 = biological target: T3, MMP07 (Homo sapiens, UniProt P09237); experiment: Thiopeptolide assay, MMP07; type: biochemical; settings: Tables 2, 3, 5, 7; read-out: IC50 MMP-7
T3 construct: made in house; host or cells: Escherichia coli
T3 sequence (P09237 95-267): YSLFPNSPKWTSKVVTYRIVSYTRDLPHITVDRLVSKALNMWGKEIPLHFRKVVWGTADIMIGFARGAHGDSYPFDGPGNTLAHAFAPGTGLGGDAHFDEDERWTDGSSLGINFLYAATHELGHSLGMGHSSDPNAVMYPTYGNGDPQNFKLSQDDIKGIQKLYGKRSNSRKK
Procedure: as §1, §2

MMP-13CD = experiment: Thiopeptolide assay, MMP-13CD; type: biochemical, human; settings: Tables 2, 3, 5, 7
Procedure: IC50 values were determined using a thiopeptolide substrate, Ac-Pro-Leu-Gly-thioester-Leu-Leu-Gly-OEt (Ye Q.-Z., Johnson L. L., Hupe D. J., and Baragi V., "Purification and Characterization of the Human Stromelysin Catalytic Domain Expressed in Escherichia coli," Biochemistry, 1992;31:11231-11235). MMP01, MMP07, MMP09, and MMP13 activity was assayed in a method similar to MMP02 and MMP03 (SCD and GCD). MMP01 and MMP09 can be obtained from Washington University School of Medicine, St. Louis, Mo. MMP07 can be obtained in accordance with the known procedure set forth by Ye QZ, Johnson L. L., and Baragi V., "Gene Syntheses and Expression in E. coli for PUMP, a Human Matrix Metalloproteinase" Biochem. and Biophys. Res. Comm., 1992; 186:143-149. MMP 13 can be obtained in accordance with the known procedure set forth by Freije J. M. P., et al., "Molecular Cloning and Expression of Collegenase-3, a Novel Human Matrix Metalloproteinase Produced by Breast Carcinomas" J. Bio. Chem., 1994;269:16766-6773.
as §2, with “7.0. The change in absorbance at 405 riM is monitored on a ThermoMax microplate reader at room temperature continuously for 20 minutes.” for “7.0.”

T2 sequence (P08254 100-272 limits assumed): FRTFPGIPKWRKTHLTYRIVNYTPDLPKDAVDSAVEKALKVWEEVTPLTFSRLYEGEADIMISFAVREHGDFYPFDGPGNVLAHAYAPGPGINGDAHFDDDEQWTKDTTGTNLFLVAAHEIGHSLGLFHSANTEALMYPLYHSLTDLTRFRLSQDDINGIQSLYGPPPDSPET

Row | IC50 (MMP01) [µM] | IC50 [1] [µM] | IC50 [2] [µM] | IC50 (MMP07) [µM] | IC50 (MMP-13CD) [µM] | SMILES
1 | > 100 | 2.7 | 8.8 | > 100 | 14.2 | COc1ccc(NC(=O)NCCCCC(NS(=O)(=O)c2ccc3oc4ccccc4c3c2)C(=O)O)cc1 (stereo not shown) [Example B1, 2-(Dibenzofuran-2-sulfonylamino)-6-[3-(4-methoxy-phenyl)-ureido]-hexanoic acid]
2 | > 100 | 22.2 | 89.3 | > 100 | > 100 | O=C(NCCCCC(NS(=O)(=O)c1ccc2oc3ccccc3c2c1)C(=O)O)Nc1ccc(Cl)c(Cl)c1 (stereo not shown) [Example B2, 2-(Dibenzofuran-2-sulfonylamino)-6-[3-(3,4dichloro-phenyl)-ureido]-hexanoicacid]
3 | > 100 | 2.1 | 6.1 | 93.5 | 13.6 | O=C(O)C(CCCCNC(=S)Nc1cccnc1)NS(=O)(=O)c1ccc2oc3ccccc3c2c1 (stereo not shown) [Example B3, 2-(Dibenzofuran-2-sulfonylamino)-6-(3-pyridin-3-yl-thioureido)-hexanoic acid]
4 | > 100 | 9.1 | 8.1 | > 100 | 20.5 | O=C(O)C(CCCCNC(=S)NC(c1ccccc1)c1ccccc1)NS(=O)(=O)c1ccc2oc3ccccc3c2c1 (stereo not shown) [Example B4, 6-(3-Benzhydryl-thioureido)-2-(dibenzofiuran-2-sulfonylamino)-hexanoic acid]
5 | > 100 | 1.2 | 2.3 | > 100 | 3.3 | O=C(O)C(CCCCNC(=S)NCc1ccccc1)NS(=O)(=O)c1ccc2oc3ccccc3c2c1 (stereo not shown) [Example B5, 6-(3-Benzyl-thioureido)-2-(dibenzofuran-2-sulfonylamino)-hexanoic acid]
6 | > 100 | 3.1 | 9 | > 100 | 4.4 | O=C(O)C(CCCCNC(=S)NC12CC3CC(CC(C3)C1)C2)NS(=O)(=O)c1ccc2oc3ccccc3c2c1 (stereo not shown) [Example B6, 6-(3-Adamantan-1-yl-thioureido)-2-(dibenzofuran-2-sulfonylamino)-hexanoic acid]
7 | > 100 | 1.1 | 3 | > 100 | 7.6 | C=CCNC(=O)NCCCCC(NS(=O)(=O)c1ccc2oc3ccccc3c2c1)C(=O)O (stereo not shown) [Example B8, 6-(3-Allyl-ureido)-2-(dibenzofuran-2-sulfonylamino)-hexanoic acid]
8 | > 100 | 0.8 | 1.4 | 70.2 | 4 | O=C(NCCCCC(NS(=O)(=O)c1ccc2oc3ccccc3c2c1)C(=O)O)NCc1ccccc1 (stereo not shown) [Example B9, 6-(3-Benzyl-ureido)-2-(dibenzofuran-2-sulfonylamino)-hexanoic acid]
9 | > 100 | 0.3 | 2.4 | > 100 | 8 | O=C(NCCCCC(NS(=O)(=O)c1ccc2oc3ccccc3c2c1)C(=O)O)Nc1ccccc1 (stereo not shown) [Example B10, 2-(Dibenzofuran-2-sulfonylamino)-6-(3-phenyl-ureido)-hexanoic acid]
10 | > 100 | 1.7 | 2.9 | > 100 | 2.4 | O=C(O)C(CCCCNS(=O)(=O)c1ccc(F)cc1)NS(=O)(=O)c1ccc2oc3ccccc3c2c1 (stereo not shown) [Example D1, 2-(Dibenzofuran-2-sulfonylamino)-6-(4-fluoro-benzenesulfonylamino)-hexanoicacid]
11 | > 100 | 1.8 | 4.6 | > 100 | 7.1 | COc1ccc(S(=O)(=O)NCCCCC(NS(=O)(=O)c2ccc3oc4ccccc4c3c2)C(=O)O)cc1 (stereo not shown) [Example D2, 2-(Dibenzofuran-2-sulfonylamino)-6-(4-methoxy-benzenesulfonylamino)-hexanoic acid]

The next lines start with the compound.

Row | SMILES | IC50 (MMP01) [µM] | IC50 [1] [µM] | IC50 [2] [µM] | IC50 (MMP07) [µM] | IC50 (MMP-13CD) [µM]
12 | O=C(CCCc1ccccc1)NCCCCC(NS(=O)(=O)c1ccc2oc3ccccc3c2c1)C(=O)O (stereo not shown) [Example A26, 2-(Dibenzofuran-2-sulfonylamino)-6-(4-phenyl-butyrylamino)-hexanoic acid] | > 100 | 1.5 | 4.2 | > 100 | 5.4
13 | Cc1ccc(CCC(=O)NCCCCC(NS(=O)(=O)c2ccc3oc4ccccc4c3c2)C(=O)O)cc1 (stereo not shown) [Example A27, 2-(Dibenzofuran-2-sulfonylamino)-6-(3-p-tolyl-propionylamino)-hexanoic acid] | > 100 | 1.1 | 7.7 | > 100 | 5.8
14 | O=C(CCc1ccc(Cl)cc1)NCCCCC(NS(=O)(=O)c1ccc2oc3ccccc3c2c1)C(=O)O (stereo not shown) [Example A28, 6-[3-(4-Chloro-phenyl)-propionylamino]-2-(dibenzofuran-2-sulfonylamino)-hexanoic acid] | > 100 | 1.8 | 4.5 | > 100 | 8.7
15 | O=C(CCCc1c[nH]c2ccccc12)NCCCCC(NS(=O)(=O)c1ccc2oc3ccccc3c2c1)C(=O)O (stereo not shown) [Example A31, 2-(Dibenzofuran-2-sulfonylamino)-6-(4-1H-indol-3-yl-butyrylamino)-hexanoic acid] | > 100 | 3.3 | 6.4 | > 100 | 12.8
16 | O=C(CCCc1cccs1)NCCCCC(NS(=O)(=O)c1ccc2oc3ccccc3c2c1)C(=O)O (stereo not shown) [Example A35, 2-(Dibenzofuran-2-sulfonylamino)-6-[4-thiophen-2-yl-butyrylamino)-hexanoic acid] | > 100 | 1.1 | 1.7 | > 100 | 4.4
17 | O=C(O)C(CCCCNC(=O)C1(c2ccccc2)CC1)NS(=O)(=O)c1ccc2oc3ccccc3c2c1 (stereo not shown) [Example A38, 2-(Dibenzofuran-2-sulfonylamino)-6-(1-phenyl-cyclopropanecarbonylamino)-hexanoic acid] | > 100 | 0.6 | 1.4 | > 100 | 4.2
